Measurements from the supplement of paper PMC10307832.

How the values were obtained:
Experiment in all cases: relative viability (nuclei count vs DMSO), 5 days (fraction); higher = more cells survive
A-427 = tested on: A-427
In short: (§1)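 Lung cancer cell lines were pin-tool dosed in 1536-well plates on the day after seeding, with either a lone drug or a fixed anchor-drug dose plus five library-drug doses (not always all listed) in √10 steps. Nuclei were counted on 4× images after 5 days. Relative viability is the ratio of treated-well to vehicle-well nuclei counts, with each value a median of duplicate plates.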

BEN = tested on: BEN
In short: as §1

COR-L23 = tested on: COR-L23
In short: as §1

EKVX = tested on: EKVX
In short: as §1

HARA = tested on: HARA
In short: as §1

LC-2-ad = tested on: LC-2-ad
In short: as §1

LOU-NH91 = tested on: LOU-NH91
In short: as §1

LU99A = tested on: LU99A
In short: as §1

NCI-H1650 = tested on: NCI-H1650
In short: as §1

NCI-H1666 = tested on: NCI-H1666
In short: as §1

NCI-H1793 = tested on: NCI-H1793
In short: as §1

NCI-H1915 = tested on: NCI-H1915
In short: as §1

NCI-H1944 = tested on: NCI-H1944
In short: as §1

NCI-H2087 = tested on: NCI-H2087
In short: as §1

NCI-H2170 = tested on: NCI-H2170
In short: as §1

NCI-H2228 = tested on: NCI-H2228
In short: as §1

NCI-H3122 = tested on: NCI-H3122
In short: as §1

NCI-H322M = tested on: NCI-H322M
In short: as §1

NCI-H520 = tested on: NCI-H520
In short: as §1

NCI-H727 = tested on: NCI-H727
In short: as §1

PC-14 = tested on: PC-14
In short: as §1

PC-3 [JPC-3] = tested on: PC-3 [JPC-3]
In short: as §1

SK-LU-1 = tested on: SK-LU-1
In short: as §1

`C=C1C(=O)O[C@@H](CCCCCCCC)[C@@H]1C(=O)O` [C-75] + CC1(C)CCC(c2ccc(Cl)cc2)=C(CN2CCN(c3ccc(C(=O)NS(=O)(=O)c4ccc(N[C@H](CCN5CCOCC5)CSc5ccccc5)c(S(=O)(=O)C(F)(F)F)c4)cc3)CC2)C1 [Navitoclax] (partner 0.5 µM) was tested, and the relative viability (A-427; first compound 0.08 µM) was 0.935, the relative viability (A-427; first compound 0.253 µM) was 1.04 and the relative viability (A-427; first compound 0.8 µM) was 0.915. The relative viability (A-427; first compound 2.53 µM) was 0.903, the relative viability (A-427; first compound 8 µM) was 0.93 and the relative viability (BEN; first compound 0.08 µM) was 0.0695. The relative viability (BEN; first compound 0.253 µM) was 0.0673, the relative viability (BEN; first compound 0.8 µM) was 0.0656 and the relative viability (BEN; first compound 2.53 µM) was 0.0589. The relative viability (BEN; first compound 8 µM) was 0.0596, the relative viability (COR-L23; first compound 0.08 µM) was 0.966 and the relative viability (COR-L23; first compound 0.253 µM) was 0.884. It also gave a relative viability (COR-L23; first compound 0.8 µM) of 0.955, a relative viability (COR-L23; first compound 2.53 µM) of 0.989 and a relative viability (COR-L23; first compound 8 µM) of 0.964. The relative viability (EKVX; first compound 0.08 µM) was 0.944, the relative viability (EKVX; first compound 0.253 µM) was 0.893 and the relative viability (EKVX; first compound 0.8 µM) was 0.831. It also gave a relative viability (EKVX; first compound 2.53 µM) of 0.864, a relative viability (EKVX; first compound 8 µM) of 1.03 and a relative viability (HARA; first compound 0.08 µM) of 1.07. The relative viability (HARA; first compound 0.253 µM) was 1.26, the relative viability (HARA; first compound 0.8 µM) was 1.12 and the relative viability (HARA; first compound 8 µM) was 1.14. For the same compound, the relative viability (LC-2-ad; first compound 0.08 µM) was 0.53, the relative viability (LC-2-ad; first compound 0.253 µM) was 0.56 and the relative viability (LC-2-ad; first compound 0.8 µM) was 0.479. The relative viability (LC-2-ad; first compound 8 µM) was 0.474, the relative viability (LOU-NH91; first compound 0.08 µM) was 0.756 and the relative viability (LOU-NH91; first compound 0.253 µM) was 0.679. For the same compound, the relative viability (LOU-NH91; first compound 0.8 µM) was 0.643, the relative viability (LOU-NH91; first compound 2.53 µM) was 0.55 and the relative viability (LOU-NH91; first compound 8 µM) was 0.776. It also gave a relative viability (LU99A; first compound 0.08 µM) of 0.795, a relative viability (LU99A; first compound 0.253 µM) of 0.845 and a relative viability (LU99A; first compound 0.8 µM) of 0.695. It also gave a relative viability (LU99A; first compound 2.53 µM) of 0.588, a relative viability (LU99A; first compound 8 µM) of 0.594 and a relative viability (NCI-H1650; first compound 0.08 µM) of 1.22. The relative viability (NCI-H1650; first compound 0.253 µM) was 1.36, the relative viability (NCI-H1650; first compound 0.8 µM) was 1.22 and the relative viability (NCI-H1650; first compound 2.53 µM) was 1.36. The relative viability (NCI-H1650; first compound 8 µM) was 0.97, the relative viability (NCI-H1666; first compound 0.08 µM) was 0.94 and the relative viability (NCI-H1666; first compound 0.253 µM) was 1.19. The relative viability (NCI-H1666; first compound 0.8 µM) was 0.742, the relative viability (NCI-H1666; first compound 2.53 µM) was 0.891 and the relative viability (NCI-H1666; first compound 8 µM) was 0.567. For the same compound, the relative viability (NCI-H1793; first compound 0.08 µM) was 0.494, the relative viability (NCI-H1793; first compound 0.253 µM) was 0.564 and the relative viability (NCI-H1793; first compound 0.8 µM) was 0.313. It also gave a relative viability (NCI-H1793; first compound 2.53 µM) of 0.308, a relative viability (NCI-H1793; first compound 8 µM) of 0.29 and a relative viability (NCI-H1915; first compound 0.08 µM) of 0.818. For the same compound, the relative viability (NCI-H1915; first compound 0.253 µM) was 0.785, the relative viability (NCI-H1915; first compound 0.8 µM) was 0.774 and the relative viability (NCI-H1915; first compound 2.53 µM) was 0.386. It also gave a relative viability (NCI-H1915; first compound 8 µM) of 0.781, a relative viability (NCI-H1944; first compound 0.08 µM) of 1.03 and a relative viability (NCI-H1944; first compound 0.253 µM) of 0.896. For the same compound, the relative viability (NCI-H1944; first compound 0.8 µM) was 1.01, the relative viability (NCI-H1944; first compound 8 µM) was 0.998 and the relative viability (NCI-H2087; first compound 0.08 µM) was 1.02. The relative viability (NCI-H2087; first compound 0.253 µM) was 1.05, the relative viability (NCI-H2087; first compound 0.8 µM) was 0.934 and the relative viability (NCI-H2087; first compound 2.53 µM) was 0.927. For the same compound, the relative viability (NCI-H2087; first compound 8 µM) was 0.87, the relative viability (NCI-H2170; first compound 0.08 µM) was 0.71 and the relative viability (NCI-H2170; first compound 0.253 µM) was 0.641. For the same compound, the relative viability (NCI-H2170; first compound 0.8 µM) was 0.556, the relative viability (NCI-H2170; first compound 2.53 µM) was 0.525 and the relative viability (NCI-H2170; first compound 8 µM) was 0.586. It also gave a relative viability (NCI-H2228; first compound 0.08 µM) of 1.04, a relative viability (NCI-H2228; first compound 0.253 µM) of 1.21 and a relative viability (NCI-H2228; first compound 0.8 µM) of 0.707. For the same compound, the relative viability (NCI-H2228; first compound 2.53 µM) was 0.973, the relative viability (NCI-H2228; first compound 8 µM) was 0.75 and the relative viability (NCI-H3122; first compound 0.08 µM) was 0.973. The relative viability (NCI-H3122; first compound 0.253 µM) was 1.05, the relative viability (NCI-H3122; first compound 0.8 µM) was 0.986 and the relative viability (NCI-H3122; first compound 8 µM) was 1.09. The relative viability (NCI-H322M; first compound 0.08 µM) was 1.18, the relative viability (NCI-H322M; first compound 0.253 µM) was 1.54 and the relative viability (NCI-H322M; first compound 0.8 µM) was 1.28. The relative viability (NCI-H322M; first compound 2.53 µM) was 1.12, the relative viability (NCI-H322M; first compound 8 µM) was 1.29 and the relative viability (NCI-H520; first compound 0.08 µM) was 1.13. It also gave a relative viability (NCI-H520; first compound 0.253 µM) of 1.24, a relative viability (NCI-H520; first compound 0.8 µM) of 1 and a relative viability (NCI-H520; first compound 2.53 µM) of 0.837. The relative viability (NCI-H520; first compound 8 µM) was 0.82, the relative viability (NCI-H727; first compound 0.08 µM) was 0.464 and the relative viability (NCI-H727; first compound 0.253 µM) was 0.62. For the same compound, the relative viability (NCI-H727; first compound 0.8 µM) was 0.436, the relative viability (NCI-H727; first compound 2.53 µM) was 0.377 and the relative viability (NCI-H727; first compound 8 µM) was 0.319. The relative viability (PC-14; first compound 0.08 µM) was 1.01, the relative viability (PC-14; first compound 0.253 µM) was 1 and the relative viability (PC-14; first compound 0.8 µM) was 0.977. For the same compound, the relative viability (PC-14; first compound 2.53 µM) was 0.911, the relative viability (PC-14; first compound 8 µM) was 0.978 and the relative viability (PC-3 [JPC-3]; first compound 0.08 µM) was 0.853. The relative viability (PC-3 [JPC-3]; first compound 0.253 µM) was 0.841, the relative viability (PC-3 [JPC-3]; first compound 0.8 µM) was 0.841 and the relative viability (PC-3 [JPC-3]; first compound 2.53 µM) was 0.826. For the same compound, the relative viability (PC-3 [JPC-3]; first compound 8 µM) was 0.874, the relative viability (SK-LU-1; first compound 0.08 µM) was 0.932 and the relative viability (SK-LU-1; first compound 0.253 µM) was 0.85. The relative viability (SK-LU-1; first compound 0.8 µM) was 0.763, the relative viability (SK-LU-1; first compound 2.53 µM) was 0.709 and the relative viability (SK-LU-1; first compound 8 µM) was 0.751.
